The results in this text go back to PubChem BioAssay (NCI).

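Method: 48-hour compound exposure of cells in 96-well plates, five concentrations, linear interpolation of endpoints. GI50 marks 50% less growth. TGI is the concentration that stops growth completely.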

One test relates to SF-268 CNS. The test can be described thus: inhibition of tumour cell growth, NCI panel, 48 h.
With `O=C1NNC=Nc2ccc(cc2)S(=O)(=O)c2ccc(cc2)N=CNNC1=O`, the TGI was over 100 µM.

Take `CC1OC(O[C@H]2C[C@@H](O)[C@]3(CO)[C@H]4[C@H](O)C[C@]5(C)[C@@H](C6=CC(=O)OC6)CC[C@]5(O)[C@@H]4CC[C@]3(O)C2)C(O)C(O)C1O` (some centres undefined): the GI50 was 18.9 µM and the TGI came out at 33.5 µM.

On to `O=C1/C(=C/c2ccc(Br)cc2)C=C(c2ccccc2)N1CCc1ccccc1`, for which the GI50 is 2.27 µM and the TGI came out at 16.3 µM.

Consider `CSc1ccc(C2=NN(C(C)=O)C(c3cc(C)cs3)C2)cc1` (centres undefined), for which the GI50 is 35.6 µM and the TGI was over 100 µM.

Consider `CCCCC(=O)OCC1OC(n2cnc3c(=S)nc[nH]c32)C(OC(=O)CCCC)C1OC(=O)CCCC` (centres undefined), for which the GI50 is 3.96 µM and the TGI is over 100 µM.

`O=c1oc2ccc(F)cc2c(=O)n1-c1ccc(F)cc1F`: the GI50 is 3.34 µM and the TGI stood at 52.1 µM.

As for `O=C(O)CCCCC(CCSCc1ccccc1)SCc1ccccc1` (centres undefined), the GI50 is over 67.2 µM and the TGI was over 100 µM.

For the compound `CC1=C(CCCNS(C)(=O)=O)C2=C(C)C3(CC3)[C@@](C)(O)C(=O)C2=C1`, the GI50 is 0.373 µM and the TGI was 14.2 µM.

`O=C1CNCCCN2CCN(CCCNCC(=O)Nc3ccc(cc3)S(=O)(=O)c3ccc(cc3)NC(=O)CNCCCN3CCN(CCCNCC(=O)Nc4ccc(cc4)S(=O)(=O)c4ccc(cc4)N1)CC3)CC2`: the TGI is over 55.4 µM.

For the compound `N#Cc1ccc(C#Cc2ccccc2C#CCCCCO)cc1`, the GI50 is 18.9 µM and the TGI turned out to be 40.7 µM.

The compound `O=NN(Cc1ccc(Cl)cc1)C(C(=O)O)c1ccccc1` (centres undefined) registered a TGI of over 100 µM.

In another test the test system is HS 578T breast. The test is described as follows: inhibition of tumour cell growth, NCI panel, 48 h.
`O=C1NNC=Nc2ccc(cc2)S(=O)(=O)c2ccc(cc2)N=CNNC1=O` came in with a TGI of over 100 µM.

On to `CC1OC(O[C@H]2C[C@@H](O)[C@]3(CO)[C@H]4[C@H](O)C[C@]5(C)[C@@H](C6=CC(=O)OC6)CC[C@]5(O)[C@@H]4CC[C@]3(O)C2)C(O)C(O)C1O` (some centres undefined), for which the GI50 is 25.6 µM and the TGI worked out at 65.9 µM.

Take `O=C1/C(=C/c2ccc(Br)cc2)C=C(c2ccccc2)N1CCc1ccccc1`: the GI50 is 0.831 µM and the TGI came to 5.33 µM.

Turning to `CSc1ccc(C2=NN(C(C)=O)C(c3cc(C)cs3)C2)cc1` (centres undefined), the GI50 is 22.3 µM and the TGI was 88.6 µM.

`CCCCC(=O)OCC1OC(n2cnc3c(=S)nc[nH]c32)C(OC(=O)CCCC)C1OC(=O)CCCC` (centres undefined): the GI50 was over 35.4 µM and the TGI is over 100 µM.

`O=c1oc2ccc(F)cc2c(=O)n1-c1ccc(F)cc1F`: the GI50 is 2.59 µM and the TGI came to 8.51 µM.

As for `O=C(O)CCCCC(CCSCc1ccccc1)SCc1ccccc1` (centres undefined), the GI50 was 50.3 µM and the TGI is over 100 µM.

For the compound `CC1=C(CCCNS(C)(=O)=O)C2=C(C)C3(CC3)[C@@](C)(O)C(=O)C2=C1`, the GI50 is 2.73 µM and the TGI was found to be 11.1 µM.

In the case of `O=C1CNCCCN2CCN(CCCNCC(=O)Nc3ccc(cc3)S(=O)(=O)c3ccc(cc3)NC(=O)CNCCCN3CCN(CCCNCC(=O)Nc4ccc(cc4)S(=O)(=O)c4ccc(cc4)N1)CC3)CC2`, the TGI is over 69.4 µM.

`N#Cc1ccc(C#Cc2ccccc2C#CCCCCO)cc1`: the GI50 was 25.7 µM and the TGI was found to be 64.2 µM.

Regarding `O=NN(Cc1ccc(Cl)cc1)C(C(=O)O)c1ccccc1` (centres undefined), the TGI is over 100 µM.

Another test relates to HT29 colon. The test can be described thus: inhibition of tumour cell growth, NCI panel, 48 h.
Compound `O=C1NNC=Nc2ccc(cc2)S(=O)(=O)c2ccc(cc2)N=CNNC1=O` returned a TGI of over 100 µM.

`CC1OC(O[C@H]2C[C@@H](O)[C@]3(CO)[C@H]4[C@H](O)C[C@]5(C)[C@@H](C6=CC(=O)OC6)CC[C@]5(O)[C@@H]4CC[C@]3(O)C2)C(O)C(O)C1O` (some centres undefined): the GI50 is 19.5 µM and the TGI worked out at 36 µM.

With `O=C1/C(=C/c2ccc(Br)cc2)C=C(c2ccccc2)N1CCc1ccccc1`, the GI50 is 4.73 µM and the TGI is over 100 µM.

On to `CSc1ccc(C2=NN(C(C)=O)C(c3cc(C)cs3)C2)cc1` (centres undefined), for which the GI50 is 24.9 µM and the TGI is over 100 µM.

In the case of `CCCCC(=O)OCC1OC(n2cnc3c(=S)nc[nH]c32)C(OC(=O)CCCC)C1OC(=O)CCCC` (centres undefined), the GI50 was 3.64 µM and the TGI was over 100 µM.

`O=c1oc2ccc(F)cc2c(=O)n1-c1ccc(F)cc1F`: the GI50 was 3.91 µM and the TGI turned out to be 49.8 µM.

For the compound `O=C(O)CCCCC(CCSCc1ccccc1)SCc1ccccc1` (centres undefined), the GI50 is 65.3 µM and the TGI is over 100 µM.

Consider `CC1=C(CCCNS(C)(=O)=O)C2=C(C)C3(CC3)[C@@](C)(O)C(=O)C2=C1`, for which the GI50 was 1.87 µM and the TGI is over 100 µM.

Regarding `O=C1CNCCCN2CCN(CCCNCC(=O)Nc3ccc(cc3)S(=O)(=O)c3ccc(cc3)NC(=O)CNCCCN3CCN(CCCNCC(=O)Nc4ccc(cc4)S(=O)(=O)c4ccc(cc4)N1)CC3)CC2`, the TGI was over 67.5 µM.

With `N#Cc1ccc(C#Cc2ccccc2C#CCCCCO)cc1`, the GI50 is 46 µM and the TGI was over 100 µM.

`O=NN(Cc1ccc(Cl)cc1)C(C(=O)O)c1ccccc1` (centres undefined) yielded a TGI of over 100 µM.

A further test concerns EKVX NSCLC. The test can be described thus: inhibition of tumour cell growth, NCI panel, 48 h.
On to `O=C1NNC=Nc2ccc(cc2)S(=O)(=O)c2ccc(cc2)N=CNNC1=O`, for which the TGI was over 100 µM.

As to `CC1OC(O[C@H]2C[C@@H](O)[C@]3(CO)[C@H]4[C@H](O)C[C@]5(C)[C@@H](C6=CC(=O)OC6)CC[C@]5(O)[C@@H]4CC[C@]3(O)C2)C(O)C(O)C1O` (some centres undefined), the GI50 was 16.5 µM and the TGI was 30.5 µM.

Consider `O=C1/C(=C/c2ccc(Br)cc2)C=C(c2ccccc2)N1CCc1ccccc1`, for which the GI50 was 1.95 µM and the TGI came out at 19 µM.

`CSc1ccc(C2=NN(C(C)=O)C(c3cc(C)cs3)C2)cc1` (centres undefined): the GI50 is 24.3 µM and the TGI is over 100 µM.

`CCCCC(=O)OCC1OC(n2cnc3c(=S)nc[nH]c32)C(OC(=O)CCCC)C1OC(=O)CCCC` (centres undefined) yielded a TGI of over 100 µM.

Regarding `O=c1oc2ccc(F)cc2c(=O)n1-c1ccc(F)cc1F`, the GI50 is 2.54 µM and the TGI came out at 9.79 µM.

For the compound `O=C(O)CCCCC(CCSCc1ccccc1)SCc1ccccc1` (centres undefined), the GI50 is 40.3 µM and the TGI is over 100 µM.

`CC1=C(CCCNS(C)(=O)=O)C2=C(C)C3(CC3)[C@@](C)(O)C(=O)C2=C1`: the GI50 was 2.31 µM and the TGI amounted to 7.72 µM.

Regarding `O=C1CNCCCN2CCN(CCCNCC(=O)Nc3ccc(cc3)S(=O)(=O)c3ccc(cc3)NC(=O)CNCCCN3CCN(CCCNCC(=O)Nc4ccc(cc4)S(=O)(=O)c4ccc(cc4)N1)CC3)CC2`, the TGI was over 100 µM.

For the compound `N#Cc1ccc(C#Cc2ccccc2C#CCCCCO)cc1`, the GI50 was 17.9 µM and the TGI was 35.3 µM.

Compound `O=NN(Cc1ccc(Cl)cc1)C(C(=O)O)c1ccccc1` (centres undefined) had a TGI of over 100 µM.

The test system of another test is NCI/ADR-RES ovarian. The test can be described thus: inhibition of tumour cell growth, NCI panel, 48 h.
For `O=C1NNC=Nc2ccc(cc2)S(=O)(=O)c2ccc(cc2)N=CNNC1=O`, the TGI is over 100 µM.

`CC1OC(O[C@H]2C[C@@H](O)[C@]3(CO)[C@H]4[C@H](O)C[C@]5(C)[C@@H](C6=CC(=O)OC6)CC[C@]5(O)[C@@H]4CC[C@]3(O)C2)C(O)C(O)C1O` (some centres undefined): the GI50 is 19.5 µM and the TGI stood at 39.9 µM.

As for `O=C1/C(=C/c2ccc(Br)cc2)C=C(c2ccccc2)N1CCc1ccccc1`, the GI50 was 1.08 µM and the TGI was 8.01 µM.

Consider `CSc1ccc(C2=NN(C(C)=O)C(c3cc(C)cs3)C2)cc1` (centres undefined), for which the GI50 is 24.5 µM and the TGI is over 100 µM.

For the compound `CCCCC(=O)OCC1OC(n2cnc3c(=S)nc[nH]c32)C(OC(=O)CCCC)C1OC(=O)CCCC` (centres undefined), the GI50 was 3.51 µM and the TGI was over 100 µM.

Take `O=c1oc2ccc(F)cc2c(=O)n1-c1ccc(F)cc1F`: the GI50 is 3.24 µM and the TGI was over 100 µM.

Take `O=C(O)CCCCC(CCSCc1ccccc1)SCc1ccccc1` (centres undefined): the GI50 was 48.6 µM and the TGI is over 100 µM.

As for `CC1=C(CCCNS(C)(=O)=O)C2=C(C)C3(CC3)[C@@](C)(O)C(=O)C2=C1`, the GI50 was 1.38 µM and the TGI was 18.1 µM.

The compound `O=C1CNCCCN2CCN(CCCNCC(=O)Nc3ccc(cc3)S(=O)(=O)c3ccc(cc3)NC(=O)CNCCCN3CCN(CCCNCC(=O)Nc4ccc(cc4)S(=O)(=O)c4ccc(cc4)N1)CC3)CC2` returned a TGI of over 100 µM.

Turning to `N#Cc1ccc(C#Cc2ccccc2C#CCCCCO)cc1`, the GI50 was 17.7 µM and the TGI came to 36.9 µM.

In the case of `O=NN(Cc1ccc(Cl)cc1)C(C(=O)O)c1ccccc1` (centres undefined), the TGI is over 100 µM.
